Data: the NIST ThermoML archive (doi:10.1016/j.jct.2018.08.036)
Several values for one entry are separate records, joined by “and”; a condition that tells them apart may be missing. Equal entries are not always repeated. ± gives the expanded uncertainty stated by the source.

Assays:
[1] = 100 kPa, Liquid; for speed of sound: Frequency=3 MHz, Single path-length method; for mass density: Vibrating tube method; for viscosity: Falling or rolling sphere viscometry
[2] = refractive index (Na D-line) (dimensionless); conditions: 100 kPa, Liquid, Standard Abbe refractometry
[3] = refractive index (Na D-line) (dimensionless); xn = mol fraction of the nth substance listed; conditions: 100 kPa, Liquid, Standard Abbe refractometry, x1 = 1
[4] = xn = mol fraction of the nth substance listed; conditions: 100 kPa, Liquid, x1 = 1; for viscosity: Falling or rolling sphere viscometry; for speed of sound: Frequency=3 MHz, Single path-length method; for mass density: Vibrating tube method

Compound | speed of sound ([1]; 293.15 K) [m/s] | mass density ([1]; 293.15 K) [kg/m3] | viscosity ([1]; 298.15 K) | speed of sound ([1]; 298.15 K) | mass density ([1]; 298.15 K) | viscosity ([1]; 308.15 K) | speed of sound ([1]; 308.15 K) | mass density ([1]; 308.15 K) | viscosity ([1]; 318.15 K) | speed of sound ([1]; 318.15 K) | mass density ([1]; 318.15 K) | speed of sound ([1]; 323.15 K) [m/s] | mass density ([1]; 323.15 K) [kg/m3] | refractive index ([2]; 293.15 K) | refractive index ([2]; 298.15 K) | refractive index ([2]; 308.15 K) | refractive index ([2]; 318.15 K) | refractive index ([2]; 323.15 K) | refractive index ([3]; 298.15 K) | refractive index ([3]; 308.15 K) | also measured
CCC(C)c1ccccc1 (centres undefined) [(1-methylpropyl)benzene] | 1333.8 ± 1 | 861.95 ± 0.42 | 0.912 ± 0.021 mPa·s | 1313.8 ± 1 m/s | 857.89 ± 0.42 kg/m3 | 0.796 ± 0.021 mPa·s | 1274.5 ± 1 m/s | 849.78 ± 0.42 kg/m3 | 0.707 ± 0.021 mPa·s | 1235.7 ± 1 m/s | 841.64 ± 0.42 kg/m3 | 1216.1 ± 1 | 837.48 ± 0.42 | 1.49 ± 0.0004 | 1.4876 ± 0.0004 | 1.4827 ± 0.0004 | 1.4778 ± 0.0004 | 1.4753 ± 0.0004 |  |  | 
CCCCCCCCCCCCCCCC [hexadecane] + CCC(C)c1ccccc1 |  |  |  |  |  |  |  |  |  |  |  |  |  |  |  |  |  |  | 1.4324 ± 0.0004 | 1.4283 ± 0.0004 | refractive index ([3]; 318.15 K): 1.4241 ± 0.0004; viscosity ([4]; 298.15 K): 3.035 ± 0.064 mPa·s; speed of sound ([4]; 298.15 K): 1338.5 ± 1 m/s; mass density ([4]; 298.15 K): 769.81 ± 0.42 kg/m3; viscosity ([4]; 308.15 K): 2.439 ± 0.063 mPa·s; speed of sound ([4]; 308.15 K): 1301.2 ± 1 m/s; mass density ([4]; 308.15 K): 762.89 ± 0.42 kg/m3; viscosity ([4]; 318.15 K): 2.008 ± 0.062 mPa·s; speed of sound ([4]; 318.15 K): 1264.7 ± 1 m/s; mass density ([4]; 318.15 K): 755.98 ± 0.42 kg/m3
CCCc1ccccc1 [propylbenzene] | 1341.5 ± 0.6 | 862.72 ± 0.22 | 0.792 ± 0.021 mPa·s | 1320.6 ± 0.6 m/s | 858.45 ± 0.22 kg/m3 | 0.699 ± 0.021 mPa·s | 1280.6 ± 0.6 m/s | 850.01 ± 0.22 kg/m3 | 0.626 ± 0.021 mPa·s | 1241 ± 0.6 m/s | 841.53 ± 0.22 kg/m3 | 1221.5 ± 0.6 | 837.31 ± 0.22 | 1.4921 ± 0.0004 | 1.4896 ± 0.0004 | 1.4844 ± 0.0004 | 1.4792 ± 0.0004 | 1.4766 ± 0.0004 |  |  | viscosity ([1]; 288.15 K): 0.924 ± 0.021 mPa·s; viscosity ([1]; 293.15 K): 0.846 ± 0.021 mPa·s; viscosity ([1]; 303.15 K): 0.742 ± 0.021 mPa·s; speed of sound ([1]; 303.15 K): 1300.4 ± 0.6 m/s; mass density ([1]; 303.15 K): 854.28 ± 0.22 kg/m3; viscosity ([1]; 313.15 K): 0.655 ± 0.021 mPa·s; speed of sound ([1]; 313.15 K): 1260.9 ± 0.6 m/s; mass density ([1]; 313.15 K): 845.81 ± 0.22 kg/m3; viscosity ([1]; 323.15 K): 0.601 ± 0.02 mPa·s; refractive index ([2]; 303.15 K): 1.487 ± 0.0004; refractive index ([2]; 313.15 K): 1.4818 ± 0.0004
CCCCCCCCCCCCCCCC [hexadecane] + CCCc1ccccc1 |  |  |  |  |  |  |  |  |  |  |  |  |  |  |  |  |  |  | 1.4324 ± 0.0004 | 1.4283 ± 0.0004 | refractive index ([3]; 318.15 K): 1.4241 ± 0.0004; viscosity ([4]; 298.15 K): 2.968 ± 0.064 mPa·s; speed of sound ([4]; 298.15 K): 1338.6 ± 1 m/s; mass density ([4]; 298.15 K): 769.86 ± 0.42 kg/m3; viscosity ([4]; 308.15 K): 2.389 ± 0.063 mPa·s; speed of sound ([4]; 308.15 K): 1301.3 ± 1 m/s; mass density ([4]; 308.15 K): 762.94 ± 0.42 kg/m3; viscosity ([4]; 318.15 K): 1.971 ± 0.062 mPa·s; speed of sound ([4]; 318.15 K): 1264.6 ± 1 m/s; mass density ([4]; 318.15 K): 755.99 ± 0.42 kg/m3
CCCCCCCCCCCCCCCC [hexadecane] | 1357.5 ± 1 | 773.33 ± 0.42 | 2.968 ± 0.064 mPa·s and 3.035 ± 0.065 mPa·s | 1338.6 ± 1 m/s and 1338.5 ± 1 m/s | 769.86 ± 0.42 kg/m3 and 769.81 ± 0.42 kg/m3 | 2.389 ± 0.063 mPa·s and 2.439 ± 0.063 mPa·s | 1301.3 ± 1 m/s and 1301.2 ± 1 m/s | 762.94 ± 0.42 kg/m3 and 762.89 ± 0.42 kg/m3 | 1.971 ± 0.062 mPa·s and 2.008 ± 0.062 mPa·s | 1264.6 ± 1 m/s and 1264.7 ± 1 m/s | 755.99 ± 0.42 kg/m3 and 755.98 ± 0.42 kg/m3 | 1246.6 ± 1 | 752.58 ± 0.42 | 1.4345 ± 0.0004 | 1.4324 ± 0.0004 | 1.4283 ± 0.0004 | 1.4241 ± 0.0004 | 1.422 ± 0.0004 |  |  | viscosity ([1]; 293.15 K): 3.341 ± 0.065 mPa·s; viscosity ([1]; 303.15 K): 2.656 ± 0.064 mPa·s; speed of sound ([1]; 303.15 K): 1319.9 ± 1 m/s; mass density ([1]; 303.15 K): 766.4 ± 0.42 kg/m3; viscosity ([1]; 313.15 K): 2.164 ± 0.062 mPa·s; speed of sound ([1]; 313.15 K): 1282.9 ± 1 m/s; mass density ([1]; 313.15 K): 759.48 ± 0.42 kg/m3; viscosity ([1]; 323.15 K): 1.8 ± 0.062 mPa·s; refractive index ([2]; 303.15 K): 1.4304 ± 0.0004; refractive index ([2]; 313.15 K): 1.4261 ± 0.0004
